According to ChEMBL document CHEMBL1255322, “In vivo therapeutic effect of gatifloxacin on BALB/c mice infected with Nocardia brasiliensis” (Antimicrob Agents Chemother, 2008):
Converted amounts (≈) assume the structure as drawn. The source made the active and inactive calls. No cut-off for these calls is given here.

How the values were obtained:
Nocardia brasiliensis [1] = test: Antimicrobial activity against Nocardia brasiliensis HUJEG-1 by broth macrodilution method; assay type: functional
[2] = Cmax in BALB/c mouse serum at 25 mg/kg, sc TID for 4 weeks by HPLC method; assay type: ADME, organism-based; design: dose 25 mg/kg, route subcutaneous
Nocardia brasiliensis [3] = test: Antimicrobial activity against Nocardia brasiliensis HUJEG-1 infected in BALB/c mouse assessed as decrease in number of lesions on foot-pad at 25 mg/kg, sc TID for 4 weeks; assay type: functional, organism-based; design: dose 25 mg/kg
[4] = Cmax in BALB/c mouse serum at 100 mg/kg, sc TID for 4 weeks by HPLC method; assay type: ADME, organism-based; design: dose 100 mg/kg, route subcutaneous
Nocardia brasiliensis [5] = test: Antimicrobial activity against Nocardia brasiliensis HUJEG-1 infected in BALB/c mouse assessed as decrease in number of lesions on foot-pad at 100 mg/kg, sc TID for 4 weeks; assay type: functional, organism-based; design: dose 100 mg/kg

MIC (Nocardia brasiliensis [1]) [µg/mL] | Structure (SMILES) | Activity (Nocardia brasiliensis [1]) | further results
 | COc1c(N2C[C@@H]3CCCN[C@@H]3C2)c(F)cc2c(=O)c(C(=O)O)cn(C3CC3)c12 | Active | 
0.12 (≈ 0.356 µM) | CC(=O)NC[C@H]1CN(c2ccc(N3CCOCC3)c(F)c2)C(=O)O1 [LINEZOLID] |  | Cmax [2]: 50000 ng/mL; Activity (Nocardia brasiliensis [3]): inactive
 | C[C@H]1NCc2cc(-c3ccc4c(=O)c(C(=O)O)cn(C5CC5)c4c3OC(F)F)ccc21 | Active | 
0.25 (≈ 0.666 µM) | COc1c(N2CCNC(C)C2)c(F)cc2c(=O)c(C(=O)O)cn(C3CC3)c12 (stereo not drawn) [GATIFLOXACIN] |  | Cmax [4]: 18000 ng/mL; Activity (Nocardia brasiliensis [5]): Active
